Test results as given in patent US10047083B2, “Dihydropyrimidinoisoquinolinones and pharmaceutical compositions thereof for the treatment of inflammatory disorders” (GALAPAGOS NV, priority 2011, dated 2018).
pIC50: −log10 of the molar value.

Target: T1, GPR84 (Homo sapiens, UniProt Q9NQS5)
T1 construct: expressed in transfected cells; membranes used
Assay: GTPγS binding assay (GPR84)
Type: biochemical
Conditions: membranes from stable cell line over expressing GPR84; 3,3′ di indolylmethane at EC80
Description: 1.1. Cell Based Assay: GTp-γS Binding Assay.
The following assay can be used for determination of GPR84 activation.
The assay is performed in a 96 well plate where the following reagents are added. […] In a last step, 30 μL of a mixture consisting of membranes-GTPγS-SpA beads is added [mixture consists of 20 μg/well membranes derived from stable cell line over expressing GPR84 (membranes are pre-incubated with 0.1 μM GDP for 15 min at 4° C.), 0.1 nM [^35S]GTPγS (Perkin Elmer, NEG030) and 0.5 mg/well PVT-WGA SpA beads (Perkin Elmer, RPNQ0001)]. All components are diluted in assay buffer containing 20 mM HEPES pH 7.4; 5 mM MgCl2; 250 mM NaCl; 0.05% BSA; 75 ug/mL saponin. Reactions are incubated for 90 min at room temperature followed by centrifugation at 2000 rpm during 15 min. Plates are read on a Topcount reader (Perkin Elmer) immediately after centrifugation (readout time, 1 min/well).

T1 sequence (Q9NQS5 whole entry): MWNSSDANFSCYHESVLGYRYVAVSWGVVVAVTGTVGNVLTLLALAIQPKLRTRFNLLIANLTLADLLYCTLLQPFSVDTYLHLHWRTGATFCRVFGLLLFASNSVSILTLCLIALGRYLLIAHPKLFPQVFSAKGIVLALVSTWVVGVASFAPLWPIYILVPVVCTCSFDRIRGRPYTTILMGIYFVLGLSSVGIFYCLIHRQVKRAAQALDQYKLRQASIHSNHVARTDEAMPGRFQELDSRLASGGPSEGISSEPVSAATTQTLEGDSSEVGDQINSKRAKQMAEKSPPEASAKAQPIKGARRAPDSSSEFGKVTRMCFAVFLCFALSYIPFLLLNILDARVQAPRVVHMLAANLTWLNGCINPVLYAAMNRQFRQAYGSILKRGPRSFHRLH

| SMILES | pIC50 |
| --- | --- |
| CCOCCOCC#Cc1ccc2c(c1)CCn1c-2cc(OC[C@@H]2COCCO2)nc1=O [Compound 134, 2-((S)-1-[1,4]dioxan-2-ylmethoxy)-9-[3-(2-ethoxy-ethoxy)-prop-1-ynyl]-6,7-dihydro-pyrimido[6,1-a]isoquinolin-4-one] | 6.30 to 7.00 |
| COc1ccc(-c2ccc3c(c2)CCn2c-3cc(OCC3COCCO3)nc2=O)c(OC)n1 (stereo not shown) [Compound 70, 9-(2,6-dimethoxy-pyridin-3-yl)-2-([1,4]dioxan-2-ylmethoxy)-6,7-dihydro-pyrimido[6,1-a]isoquinolin-4-one] | 7.00 to 11.00 |
| NC(=O)c1cc(-c2ccc3c(c2)CCn2c-3cc(OCC3COCCO3)nc2=O)ccc1F (stereo not shown) [Compound 28, 5-[2-([1,4]dioxan-2-ylmethoxy)-4-oxo-6,7-dihydro-4H-pyrimido[6,1-a]isoquinolin-9-yl]-2-fluoro-benzamide] | 6.00 to 6.30 |
| O=c1nc(OC[C@@H]2COCCO2)cc2n1CCc1cc(NC3CCCCC3)ccc1-2 [Compound 145, 9-cyclohexylamino-2-((S)-1-[1,4]dioxan-2-ylmethoxy)-6,7-dihydro-pyrimido[6,1-a]isoquinolin-4-one] | 6.30 to 7.00 |
| Cc1ccc(-c2ccc3c(c2)CCn2c-3cc(OCC3COCCO3)nc2=O)o1 (stereo not shown) [Compound 97, 2-([1,4]dioxan-2-ylmethoxy)-9-(5-methyl-furan-2-yl)-6,7-dihydro-pyrimido[6,1-a]isoquinolin-4-one] | 6.30 to 7.00 |
| O=c1nc(OCC2COCCO2)cc2n1CCc1cc(-c3ccncc3)ccc1-2 (stereo not shown) [Compound 3, 2-([1,4]dioxan-2-ylmethoxy)-9-pyridin-4-yl-6,7-dihydro-pyrimido[6,1-a]isoquinolin-4-one] | 6.00 to 6.30 |
| CCc1nc(COc2ccc3c(c2)CCn2c-3cc(OCC3COCCO3)nc2=O)no1 (stereo not shown) [Compound 78, 2-([1,4]dioxan-2-ylmethoxy)-9-(5-ethyl-[1,2,4]oxadiazol-3-ylmethoxy)-6,7-dihydro-pyrimido[6,1-a]isoquinolin-4-one] | 7.00 to 11.00 |
| O=c1nc(OC[C@@H]2COCCO2)cc2n1CCc1cc(OCC3COC3)ccc1-2 [Compound 163, 2-((S)-1-[1,4]dioxan-2-ylmethoxy)-9-(oxetan-3-ylmethoxy)-6,7-dihydro-pyrimido[6,1-a]isoquinolin-4-one] | 7.00 to 11.00 |
| O=c1nc(OCC2COCCO2)cc2n1CCc1cc(C#Cc3ccncc3)ccc1-2 (stereo not shown) [Compound 53, 2-([1,4]dioxan-2-ylmethoxy)-9-pyridin-4-ylethynyl-6,7-dihydro-pyrimido[6,1-a]isoquinolin-4-one] | 6.30 to 7.00 |
| O=c1nc(OC[C@H]2COCCO2)cc2n1CCc1cc(C#CC3(O)CCOCC3)ccc1-2 [Compound 167, 2-((R)-1-[1,4]Dioxan-2-ylmethoxy)-9-(4-hydroxy-tetrahydro-pyran-4-ylethynyl)-6,7-dihydro-pyrimido[6,1-a]isoquinolin-4-one] | 6.00 to 6.30 |
| CN(c1ccc2c(c1)CCn1c-2cc(OC[C@@H]2COCCO2)nc1=O)C1CCCCC1 [Compound 152, 9-(cyclohexyl-methyl-amino)-2-((S)-1-[1,4]dioxan-2-ylmethoxy)-6,7-dihydro-pyrimido[6,1-a]isoquinolin-4-one] | 6.00 to 6.30 |
| N#Cc1cccc(-c2ccc3c(c2)CCn2c-3cc(OCC3COCCO3)nc2=O)c1 (stereo not shown) [Compound 5, 3-[2-([1,4]dioxan-2-ylmethoxy)-4-oxo-6,7-dihydro-4H-pyrimido[6,1-a]isoquinolin-9-yl]-benzonitrile] | 6.00 to 6.30 |
| O=c1nc(OCC2COCCO2)cc2n1CCc1cc(C#CC3CCCCC3)ccc1-2 (stereo not shown) [Compound 82, 9-cyclohexylethynyl-2-([1,4]dioxan-2-ylmethoxy)-6,7-dihydro-pyrimido[6,1-a]isoquinolin-4-one] | 7.00 to 11.00 |
| COC(C)CCc1ccc2c(c1)CCn1c-2cc(OC[C@@H]2COCCO2)nc1=O (stereo partly drawn) [Compound 148, 2-((S)-1-[1,4]dioxan-2-ylmethoxy)-9-(3-methoxy-butyl)-6,7-dihydro-pyrimido[6,1-a]isoquinolin-4-one] | 7.00 to 11.00 |
| O=c1nc(OC[C@@H]2COCCO2)cc2n1CCc1cc(NCC3CCOCC3)ccc1-2 [Compound 154, 2-((S)-1-[1,4]dioxan-2-ylmethoxy)-9-[(tetrahydro-pyran-4-ylmethyl)-amino]-6,7-dihydro-pyrimido[6,1-a]isoquinolin-4-one] | 6.00 to 6.30 |
| CCCCC(CC)CNc1ccc2c(c1)CCn1c-2cc(OC[C@@H]2COCCO2)nc1=O (stereo partly drawn) [Compound 128, 2-((S)-1-[1,4]dioxan-2-ylmethoxy)-9-(2-ethyl-hexylamino)-6,7-dihydro-pyrimido[6,1-a]isoquinolin-4-one] | 6.30 to 7.00 |
| CC(C)(O)CCc1ccc2c(c1)CCn1c-2cc(OC[C@@H]2COCCO2)nc1=O [Compound 156, 2-((S)-1-[1,4]dioxan-2-ylmethoxy)-9-(3-hydroxy-3-methyl-butyl)-6,7-dihydro-pyrimido[6,1-a]isoquinolin-4-one] | 6.30 to 7.00 |

| SMILES | pIC50 |
| --- | --- |
| Cc1cc(-c2ccc3c(c2)CCn2c-3cc(OCC3COCCO3)nc2=O)ccn1 (stereo not shown) [Compound 65, 2-([1,4]dioxan-2-ylmethoxy)-9-(2-methyl-pyridin-4-yl)-6,7-dihydro-pyrimido[6,1-a]isoquinolin-4-one] | 6.00 to 6.30 |
| CCOCCOc1ccc2c(c1)CCn1c-2cc(OC[C@@H]2COCCO2)nc1=O [Compound 130, 2-((S)-1-[1,4]dioxan-2-ylmethoxy)-9-(2-ethoxy-ethoxy)-6,7-dihydro-pyrimido[6,1-a]isoquinolin-4-one] | 6.30 to 7.00 |
| O=c1nc(OC[C@@H]2COCCO2)cc2n1CCc1cc(COCC3CC3)ccc1-2 [Compound 138, 9-cyclopropylmethoxymethyl-2-((S)-1-[1,4]dioxan-2-ylmethoxy)-6,7-dihydro-pyrimido[6,1-a]isoquinolin-4-one] | 7.00 to 11.00 |
| O=c1nc(OC[C@@H]2COCCO2)cc2n1CCc1cc(C#CCOCCF)ccc1-2 [Compound 135, 2-((S)-1-[1,4]dioxan-2-ylmethoxy)-9-[3-(2-fluoro-ethoxy)-prop-1-ynyl]-6,7-dihydro-pyrimido[6,1-a]isoquinolin-4-one] | 6.30 to 7.00 |
| COc1cccc(-c2ccc3c(c2)CCn2c-3cc(OCC3COCCO3)nc2=O)c1 (stereo not shown) [Compound 43, 2-([1,4]dioxan-2-ylmethoxy)-9-(3-methoxy-phenyl)-6,7-dihydro-pyrimido[6,1-a]isoquinolin-4-one] | 6.30 to 7.00 |
| COc1ccc(OC)c(-c2ccc3c(c2)CCn2c-3cc(OCC3COCCO3)nc2=O)c1 (stereo not shown) [Compound 67, 9-(2,5-dimethoxy-phenyl)-2-([1,4]dioxan-2-ylmethoxy)-6,7-dihydro-pyrimido[6,1-a]isoquinolin-4-one] | 7.00 to 11.00 |
| N#Cc1ccncc1-c1ccc2c(c1)CCn1c-2cc(OCC2COCCO2)nc1=O (stereo not shown) [Compound 66, 3-[2-([1,4]dioxan-2-ylmethoxy)-4-oxo-6,7-dihydro-4H-pyrimido[6,1-a]isoquinolin-9-yl]-isonicotinonitrile] | 6.30 to 7.00 |
| O=c1nc(OC[C@H]2COCCO2)cc2n1CCc1cc(OCc3noc(C4CC4)n3)ccc1-2 [Compound 104, 9-(5-cyclopropyl-[1,2,4]oxadiazol-3-ylmethoxy)-2-((R)-1-[1,4]dioxan-2-ylmethoxy)-6,7-dihydro-pyrimido[6,1-a]isoquinolin-4-one] | 7.00 to 11.00 |
| O=c1nc(OCC2COCCO2)cc2n1CCc1cc(C#CC(O)c3cccnc3)ccc1-2 (stereo not shown) [Compound 108, 2-([1,4]dioxan-2-ylmethoxy)-9-(3-hydroxy-3-pyridin-3-yl-prop-1-ynyl)-6,7-dihydro-pyrimido[6,1-a]isoquinolin-4-one] | 7.00 to 11.00 |
| CC(O)C#Cc1ccc2c(c1)CCn1c-2cc(OCC2COCCO2)nc1=O (stereo not shown) [Compound 87, 2-([1,4]dioxan-2-ylmethoxy)-9-(3-hydroxy-but-1-ynyl)-6,7-dihydro-pyrimido[6,1-a]isoquinolin-4-one] | 6.30 to 7.00 |
| O=c1nc(OCC2COCCO2)cc2n1CCc1cc(C#CC3CCCC3)ccc1-2 (stereo not shown) [Compound 81, 9-cyclopentylethynyl-2-([1,4]dioxan-2-ylmethoxy)-6,7-dihydro-pyrimido[6,1-a]isoquinolin-4-one] | 7.00 to 11.00 |
| O=c1nc(OCC2COCCO2)cc2n1CCc1cc(C#CCn3ccnc3)ccc1-2 (stereo not shown) [Compound 113, 2-([1,4]Dioxan-2-ylmethoxy)-9-(3-imidazol-1-yl-prop-1-ynyl)-6,7-dihydro-pyrimido[6,1-a]isoquinolin-4-one] | 6.30 to 7.00 |
| C=CCOc1ccc2c(c1)CCn1c-2cc(OC[C@@H]2COCCO2)nc1=O [Compound 118, 9-allyloxy-2-((S)-1-[1,4]dioxan-2-ylmethoxy)-6,7-dihydro-pyrimido[6,1-a]isoquinolin-4-one] | 6.30 to 7.00 |
| COC(CCc1ccc2c(c1)CCn1c-2cc(OC[C@@H]2COCCO2)nc1=O)C(C)C (stereo partly drawn) [Compound 142, 2-((S)-1-[1,4]dioxan-2-ylmethoxy)-9-(3-methoxy-4-methyl-pentyl)-6,7-dihydro-pyrimido[6,1-a]isoquinolin-4-one] | 7.00 to 11.00 |
| CC(C)(C)CCCOc1ccc2c(c1)CCn1c-2cc(OC[C@@H]2COCCO2)nc1=O [Compound 141, 9-(4,4-dimethyl-pentyloxy)-2-((S)-1-[1,4]dioxan-2-ylmethoxy)-6,7-dihydro-pyrimido[6,1-a]isoquinolin-4-one] | 6.30 to 7.00 |
| Cc1nc(COc2ccc3c(c2)CCn2c-3cc(OCC3COCCO3)nc2=O)no1 (stereo not shown) [Compound 79, 2-([1,4]dioxan-2-ylmethoxy)-9-(5-methyl-[1,2,4]oxadiazol-3-ylmethoxy)-6,7-dihydro-pyrimido[6,1-a]isoquinolin-4-one] | 6.30 to 7.00 |
| NC(=O)c1ccc(F)c(-c2ccc3c(c2)CCn2c-3cc(OCC3COCCO3)nc2=O)c1 (stereo not shown) [Compound 50, 3-[2-([1,4]dioxan-2-ylmethoxy)-4-oxo-6,7-dihydro-4H-pyrimido[6,1-a]isoquinolin-9-yl]-4-fluoro-benzamide] | 6.30 to 7.00 |
